The nature of data set [1]: Mouse liver microsomal stability. For orientation: Microsomes from liver hold many membrane-bound enzymes, among them those of drug oxidation.
For data set [2] the following is noted: cited from earlier work.
Data set [3] addresses human EP2 receptor (Homo sapiens, UniProt P43116). Briefly: Cell-based cAMP TR-FRET assay, Schild KB against PGE2 at EP2. The conditions noted are these: for fold less EP2 potency in comparison to 2a: comparator 2a; for fold less potent than equivalent nicotinic derivative: 11a vs 8b, 11b vs 8g, 11c vs 8f.
A short description of data set [4]: Kinetic aqueous solubility in PBS pH 7.4 by nephelometry. The format is physicochemical. The conditions noted are these: comparator 2a.
Data set [5] is described as follows: Solubility in simulated gastric fluid pH 2.0 by nephelometry. The format is physicochemical.
Data set [6] has as its target human IP receptor (Homo sapiens, UniProt P43119). Briefly: Cell-based cAMP TR-FRET assay, Schild KB against iloprost at IP. Conditions: for S.I (IP/EP2): selectivity index IP KB/EP2 KB.
Data set [7] has as its target human EP4 receptor (Homo sapiens, UniProt P35408). As to the kind of experiment: Cell-based cAMP TR-FRET assay, Schild KB against PGE2 at EP4. The conditions noted are these: for S.I (EP4/EP2): selectivity index EP4 KB/EP2 KB. (In general: Time-resolved FRET reads energy transfer from a long-lived donor to a nearby acceptor.)
In data set [8] the target is T1, human DP1 receptor (Homo sapiens, UniProt Q13258).
T1 sequence (Q13258 1-359): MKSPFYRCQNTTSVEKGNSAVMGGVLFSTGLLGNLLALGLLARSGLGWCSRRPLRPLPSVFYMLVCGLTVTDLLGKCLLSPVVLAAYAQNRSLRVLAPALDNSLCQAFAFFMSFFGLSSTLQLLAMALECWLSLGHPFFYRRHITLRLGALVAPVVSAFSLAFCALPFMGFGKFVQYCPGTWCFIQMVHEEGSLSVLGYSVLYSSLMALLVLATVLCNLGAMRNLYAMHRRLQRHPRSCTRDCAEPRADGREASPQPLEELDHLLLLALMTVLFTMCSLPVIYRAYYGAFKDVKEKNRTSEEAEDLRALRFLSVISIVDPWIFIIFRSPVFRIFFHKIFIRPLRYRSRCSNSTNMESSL
Briefly: Cell-based cAMP TR-FRET assay, Schild KB against BW245C at DP1. The conditions noted are these: for S.I. (DP1/EP2): selectivity index DP1 KB/EP2 KB.

Data set [9] in a line: Mouse pharmacokinetics and brain-to-plasma ratio. It counts as in vivo.
The test system of data set [10] is MDR1-MDCK cell line.
A short description of data set [11]: 24 h shake flask thermodynamic solubility in neat water. The format is physicochemical.
Data set [12] deals with MDR1-MDCK cell line. Briefly: Permeability across MDR1-expressed MDCK cell monolayers.
The nature of data set [13]: Human liver microsomal stability. The conditions noted are these: 1 μM compound, 0.5 mg/mL human liver microsomes (compounds 1 and 3). The format is in vitro ADME.
Data set [14] in a line: Metabolite identification in mouse liver microsomes. The format is in vitro ADME. Conditions: 20 min incubation, LC-MS/MS.

“Also recorded” adds a separate entry of the source. Like-named read-outs stand apart in the source and are kept apart here.

Results on 24 compounds are retold here after paper PMC7394479 (Journal of medicinal chemistry, 2020).

Sequence of human EP4 receptor (P35408 whole entry): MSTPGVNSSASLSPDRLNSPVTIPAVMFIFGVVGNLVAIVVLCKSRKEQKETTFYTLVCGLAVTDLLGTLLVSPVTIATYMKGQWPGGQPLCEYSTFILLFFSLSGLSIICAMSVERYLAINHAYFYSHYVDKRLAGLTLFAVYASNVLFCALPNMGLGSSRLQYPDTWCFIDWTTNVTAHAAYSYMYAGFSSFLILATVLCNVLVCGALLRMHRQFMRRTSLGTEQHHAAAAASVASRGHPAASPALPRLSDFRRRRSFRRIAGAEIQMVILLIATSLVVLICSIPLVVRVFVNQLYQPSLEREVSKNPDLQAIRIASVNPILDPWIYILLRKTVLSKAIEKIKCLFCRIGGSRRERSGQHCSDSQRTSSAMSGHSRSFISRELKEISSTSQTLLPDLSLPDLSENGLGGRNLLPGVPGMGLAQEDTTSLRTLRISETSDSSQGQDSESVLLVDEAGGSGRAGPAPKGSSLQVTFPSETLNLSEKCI
Sequence of human IP receptor (P43119 whole entry): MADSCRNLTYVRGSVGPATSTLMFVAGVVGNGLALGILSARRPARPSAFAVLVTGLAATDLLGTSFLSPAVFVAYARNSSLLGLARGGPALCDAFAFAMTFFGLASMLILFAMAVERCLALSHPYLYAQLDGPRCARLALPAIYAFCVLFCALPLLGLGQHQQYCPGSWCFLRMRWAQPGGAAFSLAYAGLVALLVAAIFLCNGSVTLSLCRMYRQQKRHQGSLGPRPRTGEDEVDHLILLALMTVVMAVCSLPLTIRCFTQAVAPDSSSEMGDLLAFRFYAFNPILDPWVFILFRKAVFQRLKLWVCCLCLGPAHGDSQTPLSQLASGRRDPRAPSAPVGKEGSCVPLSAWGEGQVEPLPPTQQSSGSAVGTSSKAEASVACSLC
Sequence of human EP2 receptor (P43116 whole entry): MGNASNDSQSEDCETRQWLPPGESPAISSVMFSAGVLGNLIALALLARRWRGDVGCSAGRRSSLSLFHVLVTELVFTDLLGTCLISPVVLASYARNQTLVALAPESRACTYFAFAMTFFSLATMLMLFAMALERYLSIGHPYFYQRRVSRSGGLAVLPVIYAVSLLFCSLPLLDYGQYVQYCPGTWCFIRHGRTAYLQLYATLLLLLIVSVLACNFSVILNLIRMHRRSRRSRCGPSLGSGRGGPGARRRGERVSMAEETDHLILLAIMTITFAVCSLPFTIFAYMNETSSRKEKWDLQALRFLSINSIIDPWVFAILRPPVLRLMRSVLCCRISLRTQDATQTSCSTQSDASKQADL

The term half-life denotes how long it takes for the measured level to halve. A low value points to fast loss. In turn, `Cc1[nH]c2ccccc2c1CCNC(=O)c1ccc(N2CCOCC2)cc1` [2a] yielded a half-life at 1 μM in data set [1] (mouse, pooled liver microsomes) of less than 2 min. Moreover, in [2], the “half-life in mouse liver microsomes” value is less than 2 min.
On to `Cc1[nH]c2ccccc2c1CCNC(=O)c1ccc(N2CCOCC2)nc1` [2b, N-(2-(2-Methyl-1H-indol-3-yl)ethyl)-6-morpholinonicotinamide], for which the “fold less EP2 potency in comparison to 2a” value in data set [3] came to 4 fold. Moreover, in data set [4], the “fold increased aqueous solubility” value is given as 3 fold.
With `Cc1[nH]c2ccccc2c1CCNC(=O)c1ccc(-c2ccccc2F)nc1` [8e, 6-(2-Fluorophenyl)-N-(2-(2-methyl-1H-indol-3-yl)ethyl)nicotinamide], the “fold less EP2 potency in comparison to 2a” value in [3] is 2 fold. Further, the “fold less EP2 potency in comparison to 8c” value in [3] (comparator 8c (14b: vs. 14c or 8c)) came to 4 fold.
Turning to `COc1cccc(-c2ccc(C(=O)NCCc3c(C)[nH]c4ccccc34)nc2)c1` [11a, 5-(3-Methoxyphenyl)-N-(2-(2-methyl-1H-indol-3-yl)ethyl)picolinamide], the “fold less potent than equivalent nicotinic derivative” value in data set [3] was 4 fold.
`COc1cc(OC)cc(-c2ccc(C(=O)NCCc3c(C)[nH]c4ccccc34)nc2)c1` [11b, 5-(3,5-Dimethoxyphenyl)-N-(2-(2-methyl-1H-indol-3-yl)ethyl)picolinamide]: in data set [3], the “fold less potent than equivalent nicotinic derivative” value is reported as 11 fold.
What is called solubility is how much of the substance goes into solution per volume. A high value points to a readily soluble substance. In [5] (simulated gastric fluid), `COc1ccccc1-c1ncc(C(=O)NCCc2c(C)[nH]c3ccccc23)cn1` [14a, 2-(2-Methoxyphenyl)-N-(2-(2-methyl-1H-indol-3-yl)ethyl)pyrimidine-5-carboxamide] returned a solubility of more than 100 µM. Besides, the “S.I (IP/EP2)” value in [6] is on record as 730. For the same compound, in data set [7], the “S.I (EP4/EP2)” value stood at 517.
Take `Cc1[nH]c2ccccc2c1CCNC(=O)c1cnc(Nc2ccccn2)nc1` [20a, N-(2-(2-Methyl-1H-indol-3-yl)ethyl)-2-(pyridin-2-ylamino)pyrimidine-5-carboxamide]: the “S.I (IP/EP2)” value in [6] was more than 900. Moreover, the “S.I. (DP1/EP2)” value in [8] was more than 900.
Turning to `Cc1[nH]c2ccccc2c1CCNC(=O)c1cnc(Nc2cc(F)ccn2)nc1` [20c, 2-((4-Fluoropyridin-2-yl)amino)-N-(2-(2-methyl-1H-indol-3-yl)ethyl)pyrimidine-5-carboxamide], the “in vivo stability in words” value in data set [9] (mouse, in vivo) was “unstable in vivo”. Also, the “S.I (IP/EP2)” value in [6] is more than 1500. For the same compound, in data set [7], the “S.I (EP4/EP2)” value is more than 1500.
Regarding `Cc1cccc(Nc2ncc(C(=O)NCCc3c(C)[nH]c4ccccc34)cn2)n1` [20e, N-(2-(2-Methyl-1H-indol-3-yl)ethyl)-2-((6-methylpyridin-2-yl)amino)pyrimidine-5-carboxamide], in data set [6], the “S.I (IP/EP2)” value was more than 1500. Further, the “S.I (EP4/EP2)” value in data set [7] is recorded as more than 1500.
As for `Cc1[nH]c2ccccc2c1CCNC(=O)c1cnc(Nc2cccc(F)n2)nc1` [20f, 2-((6-Fluoropyridin-2-yl)amino)-N-(2-(2-methyl-1H-indol-3-yl)ethyl)pyrimidine-5-carboxamide], the “fold higher half-life in mouse liver microsomes” value in [1] (24i vs 20o, 20c vs 20b, 20f vs 20e) was determined as 8 fold.
Take `COc1cccc(Nc2ncc(C(=O)NCCc3c(C)[nH]c4ccccc34)cn2)n1` [20h, 2-((6-Methoxypyridin-2-yl)amino)-N-(2-(2-methyl-1H-indol-3-yl)ethyl)pyrimidine-5-carboxamide]: in [6], the Kb is more than 10 µM and the “S.I (IP/EP2)” value was more than 1280. In [8], the Kb is more than 10 µM and the “S.I. (DP1/EP2)” value is more than 1280.
Take `CC(=O)c1ccc(Nc2ncc(C(=O)NCCc3c(C)[nH]c4ccccc34)cn2)nc1` [20l, 2-((5-Acetylpyridin-2-yl)amino)-N-(2-(2-methyl-1H-indol-3-yl)ethyl)pyrimidine-5-carboxamide]: the “fold reduced EP2 potency in comparison to 20b” value in data set [3] (comparator 20b) is 20 fold.
On to `Cc1cc(C)nc(Nc2ncc(C(=O)NCCc3c(C)[nH]c4ccccc34)cn2)c1` [20o, 2-((4,6-Dimethylpyridin-2-yl)amino)-N-(2-(2-methyl-1H-indol-3-yl)ethyl)pyrimidine-5-carboxamide], for which the solubility in data set [5] is more than 250 µM. Besides, the “efflux pump substrate status” value in data set [10] is given as “not the substrate of efflux pumps”. For the same compound, in data set [10] (dog), the “Permeability across MDR1-MDCK cell line, A-B” value is “B-A: 22.2 × 10^−6 cm/s A-B: 13.2 × 10^−6 cm/s” and the “Permeability across MDR1-MDCK cell line, B-A” value was “B-A: 22.2 × 10^−6 cm/s A-B: 13.2 × 10^−6 cm/s”.
For `Cc1cc(C)nc(Nc2ncc(C(=O)NCCc3c(C)[nH]c4ccccc34)cn2)c1.Cl` [20o.HCl, 2-((4,6-Dimethylpyridin-2-yl)amino)-N-(2-(2-methyl-1H-indol-3-yl)ethyl)pyrimidine-5-carboxamide.Hydrochloride], the “water pH after dissolving the compound” value in data set [11] (2 mg/mL in neat water, starting pH 6.4) amounted to 3.5.
For the compound `Cc1[nH]c2ccccc2c1CCNC(=O)c1cnc(Nc2ccncc2)nc1` [20p, N-(2-(2-Methyl-1H-indol-3-yl)ethyl)-2-(pyridin-4-ylamino)pyrimidine-5-carboxamide], in data set [3], the “EP2 potency in words” value is “complete loss of potency”.
As to `Cc1[nH]c2ccccc2c1CCNC(=O)c1cnc(Nc2cccnc2)nc1` [20q, N-(2-(2-Methyl-1H-indol-3-yl)ethyl)-2-(pyridin-3-ylamino)pyrimidine-5-carboxamide], in data set [6], the Kb was more than 10 µM and the “S.I (IP/EP2)” value is recorded as more than 1200. Further, in data set [7], the Kb is more than 10 µM and the “S.I (EP4/EP2)” value is recorded as more than 1200.
As to `Cc1ccc(Nc2ncc(C(=O)NCCc3c(C)[nH]c4ccccc34)cn2)c(C)n1` [20r, 2-((2,6-Dimethylpyridin-3-yl)amino)-N-(2-(2-methyl-1H-indol-3-yl)ethyl)pyrimidine-5-carboxamide], the “fold reduced EP2 potency” value in data set [3] (comparator not clearly stated) is given as 10 fold.
In the case of `Cc1cc(C)nc(Nc2ncc(C(=O)NCCc3c(C)[nH]c4ccc(Cl)cc34)cn2)c1` [24b, N-(2-(5-Chloro-2-methyl-1H-indol-3-yl)ethyl)-2-((4,6-dimethylpyridin-2-yl)amino)pyrimidine-5-carboxamide], in [6], the Kb was more than 10 µM and the “S.I (IP/EP2)” value was more than 350. In addition, in [7], the Kb is more than 10 µM and the “S.I (EP4/EP2)” value was more than 350.
In turn, `Cc1cc(C)nc(Nc2ncc(C(=O)NCCc3c(C)[nH]c4c(F)cc(F)cc34)cn2)c1` [24c, N-(2-(5,7-Difluoro-2-methyl-1H-indol-3-yl)ethyl)-2-((4,6-dimethylpyridin-2-yl)amino)pyrimidine-5-carboxamide] displayed a solubility in data set [5] (simulated gastric fluid) of more than 100 µM. In data set [6], the Kb is more than 10 µM and the “S.I (IP/EP2)” value is more than 500.
As for `Cc1cc(C)nc(Nc2ncc(C(=O)NCCc3c(C)[nH]c4c(Cl)cc(Cl)cc34)cn2)c1.Cl` [24d.HCl], in [11] (HCl salt, neat water, 2 mg/mL, 24 h shake flask, HPLC), the “Water solubility of corresponding HCl salt” value was “c The solubility of compounds measured in simulated gastric fluid at pH 2.0 by nephelometry. Compound 24dis a milky-white solution in DMSO and 24 h is an inactive compound. Therefore, their solubility is not determined by nephelometry, however, 24d.HClis highly water soluble”.
`Cc1cc(C)nc(Nc2ncc(C(=O)NCCc3c(C(F)(F)F)[nH]c4ccccc34)cn2)c1` [24f, 2-((4,6-Dimethylpyridin-2-yl)amino)-N-(2-(2-(trifluoromethyl)-1H-indol-3-yl)ethyl)pyrimidine-5-carboxamide]: the “fold reduced EP2 potency in comparison to 20o” value in [3] (comparator 20o) was 8 fold.
In the case of `Cc1cc(C)nc(Nc2ncc(C(=O)NCC(=O)c3c(C)[nH]c4ccccc34)cn2)c1` [24h, 2-((4,6-Dimethylpyridin-2-yl)amino)-N-(2-(2-methyl-1H-indol-3-yl)-2-oxoethyl)pyrimidine-5-carboxamide], in data set [3], the “EP2 potency in words” value is reported as “eliminated the potency”.
Turning to `COc1cc(/C=C/C(=O)NCCn2c(C(F)(F)F)cc3ccccc32)cc(OC)c1OC` [compound 1], the “Permeability across MDR1-MDCK cell line, A-B” value in data set [12] (apical-to-basolateral) amounted to 25.4 ×10⁻⁶ cm/s. The “Permeability across MDR1-MDCK cell line, B-A” value in data set [12] (basolateral-to-apical) was 27.1 ×10⁻⁶ cm/s. In data set [9] (mice, ip/po, 10 mg/kg dose), the “In vivo plasma t1/2” value was 1.7 (ip/po, 10 mg/kg dose) h. For the same compound, the “HLM t1/2” value in [13] was found to be 11 min. In addition, the “MLM t1/2” value in data set [1] (1 μM compound, 0.5 mg/mL mouse liver microsomes (compounds 1 and 3)) was 10 min.
Turning to `Cc1[nH]c2ccccc2c1CCNC(=O)c1ccc(-c2nnn[nH]2)cc1` [compound 3], the “metabolic fragments in mouse liver microsomes” value in data set [14] was “did not produce any fragments even after 20 minutes of incubation; also recorded: has not shown any metabolic fragments even after 20 min of incubation”. For the same compound, in [2], the “stability in mouse liver microsomes” value is given as more than 60 min.
